Results from patent US7229803B2, “Reaction of (di)amines in the presence of a lysine oxidase and of a reducing agent” (BASF Aktiengesellschaft, priority 2001, dated 2007).

Molecular target: T1, lysine oxidase from Pichia pastoris (Komagataella pastoris, UniProt Q96X16)
T1 construct: Purification of the Lysine Oxidase from Pichia pastoris; endogenous in cells; host or cells: Pichia pastoris (enzyme purified from the yeast itself)
T1 sequence (Q96X16 19-787): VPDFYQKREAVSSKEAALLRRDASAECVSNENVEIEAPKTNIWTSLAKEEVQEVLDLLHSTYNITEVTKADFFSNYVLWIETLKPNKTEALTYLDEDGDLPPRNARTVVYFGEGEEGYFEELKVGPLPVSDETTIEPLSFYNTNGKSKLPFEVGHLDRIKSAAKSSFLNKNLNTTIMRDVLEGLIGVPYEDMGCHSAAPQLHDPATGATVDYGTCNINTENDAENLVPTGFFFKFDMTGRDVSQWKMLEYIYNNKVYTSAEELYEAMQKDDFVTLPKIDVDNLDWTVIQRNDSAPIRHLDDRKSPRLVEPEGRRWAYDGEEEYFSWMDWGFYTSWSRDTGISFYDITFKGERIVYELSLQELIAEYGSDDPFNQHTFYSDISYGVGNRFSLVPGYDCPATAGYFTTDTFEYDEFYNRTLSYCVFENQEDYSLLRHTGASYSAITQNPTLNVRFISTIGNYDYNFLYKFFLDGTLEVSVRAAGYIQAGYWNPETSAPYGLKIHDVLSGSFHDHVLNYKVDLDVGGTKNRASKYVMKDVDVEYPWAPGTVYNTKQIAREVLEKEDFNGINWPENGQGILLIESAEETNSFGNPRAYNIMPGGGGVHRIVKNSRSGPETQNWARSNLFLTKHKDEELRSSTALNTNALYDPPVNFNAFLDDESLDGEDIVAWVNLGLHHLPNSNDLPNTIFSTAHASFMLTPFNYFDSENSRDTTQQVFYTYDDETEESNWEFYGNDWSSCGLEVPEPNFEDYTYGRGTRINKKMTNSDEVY
Assay: Assays with various substrates: conversion in the presence of lysine oxidase (peroxidase/4-aminoantipyrine/phenol dye, absorption at 500 nm)
Type: biochemical
Details: substrate 18.75-1200 μmol/l in water, no reducing agent, L-lysine = 100
Method: Measurement series in each case with a concentration of 1 200, 600, 300, 150, 75, 37.5 and 18.75 μmol of (di)amine per 1 l of water were carried out in a microtiter plate. 2 measurement series were carried out in each case; one with enzyme and one without enzyme as reference.
100 μl of each of the diluted solutions were taken. To this solution were added 25 μl of lysine oxidase and 40 μl of 35 millimolar phenol solution in 200 millimolar potassium phosphate/potassium diphosphate solution with a pH of 7.5, 40 μl of a 2 millimolar aqueous 4-aminoantipyrine solution and 40 μl of a solution of 0.35 mg of peroxidase (horseradish from Sigma) in 1 ml of water.
In the reference measurement series, the 25 μl of lysine oxidase were replaced by 25 μl of water. A violet dye was formed by the […] produced on conversion of the substrates and its absorption in the UV at 500 nm was measured (T. Uwajima, O. Terada, Methods in Enzymology 1982, 89, 243 ff.).

Compound	Relative conversion rate compared with L-lysine in % [%]
NCCCCN [1,4-Diaminobutane]	133
NCCCCCCN [1,6-Diaminohexane]	180
NCCCCCCCCN [1,8-Diaminooctane]	197
NCc1cccnc1 [3-Aminomethylpyridine]	128
NCc1ccccc1 [Benzylamine]	108
NCCCC[C@@H](N)C(=O)O [D-Lysine]	100
NCC(O)CCC(N)C(=O)O [D/L-5-Hydroxylysine]	60
NCCCC(N)C(=O)OC(F)F [D/L-Ornithine difluoromethyl ester]	39
NCCO [Ethanolamine]	50
NCCN [Ethylenediamine]	84
CCOC(=O)CN [Glycine ethyl ester]	93
NCCCC[C@H](N)C(=O)O [L-Lysine]	100
NCCCNCCCCNCCCN [Spermine]	185
CCCCN [n-Butylamine]	63
CC(=O)N[C@@H](CCCCN)C(=O)O [α-N-Acetyllysine]	120
